Test results: patent US20230085307A1, “PYRIDAZINONE COMPOUND AND HERBICIDE” (NISSAN CHEMICAL CORPORATION, priority 2019, published 2023)

Tests used:
late watergrass = test: Test Example 1: herbicidal activity, application before weed generation under submerged conditions (Table 16, symbol A); format: in vivo, late watergrass (Echinochloa oryzicola); settings: 320 g/ha applied herbicide
Summary of the method: (§1)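 Alluvial soil was flooded to 4 cm depth, weed seeds were sown mixed and 2.5-leaf rice seedlings were transplanted. On sowing day, the compound's emulsion, diluted in water to a set dose, was applied to the water surface. Plants grew at 25–30 °C and were scored 0–5 after three weeks.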

Japanese bulrush = test: Test Example 1: herbicidal activity, application before weed generation under submerged conditions (Table 16, symbol B); format: in vivo, Japanese bulrush (Schoenoplectus juncoides); settings: 320 g/ha applied herbicide
Summary of the method: as §1

oval-leafed pondweed = test: Test Example 1: herbicidal activity, application before weed generation under submerged conditions (Table 16, symbol C); format: in vivo, oval-leafed pondweed (Monochoria vaginalis); settings: 320 g/ha applied herbicide
Summary of the method: as §1

barnyard grass [1] = test: Test Example 3: herbicidal effect by foliage application, Wagner pot (Table 18, symbol H); format: in vivo, barnyard grass (Echinochloa crus-galli); settings: amount of applied herbicide 320 g/ha
Summary of the method: (§2)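 Plants were sown in alluvial soil held under 0.1–0.5 cm standing water and grown 14 days in a greenhouse at 25–30 °C. An emulsifiable formulation, water-diluted to the set dose, was then sprayed onto the foliage, and effects were scored three weeks later using previously defined criteria.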

Chinese sprangletop = test: Test Example 3: herbicidal effect by foliage application, Wagner pot (Table 18, symbol D); format: in vivo, chinese sprangletop (Leptochloa chinensis); settings: amount of applied herbicide 320 g/ha
Summary of the method: as §2

rice flat sedge = test: Test Example 3: herbicidal effect by foliage application, Wagner pot (Table 18, symbol E); format: in vivo, rice flat sedge (Cyperus iria); settings: amount of applied herbicide 320 g/ha
Summary of the method: as §2

southern crabgrass [2] = test: Test Example 4: herbicidal effect by soil treatment (Table 19, symbol F); format: in vivo, southern crabgrass (Digitaria ciliaris); settings: amount of applied herbicide 320 g/ha
Summary of the method: (§3)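 Soil-surface application: an emulsion agent diluted with water to the predetermined dose is sprayed uniformly over seeds lying under roughly 1.5 cm of sterilized diluvial soil. Boxes stay in a greenhouse at 25° C. to 30° C. Three weeks later, each species is graded on previously defined criteria.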

green foxtail [3] = test: Test Example 4: herbicidal effect by soil treatment (Table 19, symbol G); format: in vivo, green foxtail (Setaria viridis); settings: amount of applied herbicide 320 g/ha
Summary of the method: as §3

barnyard grass [4] = test: Test Example 4: herbicidal effect by soil treatment (Table 19, symbol H); format: in vivo, barnyard grass (Echinochloa crus-galli); settings: amount of applied herbicide 320 g/ha
Summary of the method: as §3

wild oat [5] = test: Test Example 4: herbicidal effect by soil treatment (Table 19, symbol I); format: in vivo, wild oat (Avena fatua); settings: amount of applied herbicide 320 g/ha
Summary of the method: as §3

blackgrass [6] = test: Test Example 4: herbicidal effect by soil treatment (Table 19, symbol J); format: in vivo, blackgrass (Alopecurus myosuroides); settings: amount of applied herbicide 320 g/ha
Summary of the method: as §3

Italian ryegrass [7] = test: Test Example 4: herbicidal effect by soil treatment (Table 19, symbol K); format: in vivo, Italian ryegrass (Lolium multiflorum); settings: amount of applied herbicide 320 g/ha
Summary of the method: as §3

windgrass [8] = test: Test Example 4: herbicidal effect by soil treatment (Table 19, symbol L); format: in vivo, windgrass (Apera spica-venti); settings: amount of applied herbicide 320 g/ha
Summary of the method: as §3

velvetleaf [9] = test: Test Example 4: herbicidal effect by soil treatment (Table 19, symbol M); format: in vivo, velvetleaf (Abutilon theophrasti); settings: amount of applied herbicide 320 g/ha
Summary of the method: as §3

redroot pigweed [10] = test: Test Example 4: herbicidal effect by soil treatment (Table 19, symbol N); format: in vivo, redroot pigweed (Amaranthus retroflexus); settings: amount of applied herbicide 320 g/ha
Summary of the method: as §3

lambsquarters [11] = test: Test Example 4: herbicidal effect by soil treatment (Table 19, symbol O); format: in vivo, lambsquarters (Chenopodium album); settings: amount of applied herbicide 320 g/ha
Summary of the method: as §3

chickweed [12] = test: Test Example 4: herbicidal effect by soil treatment (Table 19, symbol P); format: in vivo, common chickweed (Stellaria media); settings: amount of applied herbicide 320 g/ha
Summary of the method: as §3

persian speedwell [13] = test: Test Example 4: herbicidal effect by soil treatment (Table 19, symbol R); format: in vivo, Persian speedwell (Veronica persica); settings: amount of applied herbicide 320 g/ha
Summary of the method: as §3

southern crabgrass [14] = test: Test Example 5: herbicidal effect by foliage application, plastic box (Table 20, symbol F); format: in vivo, southern crabgrass (Digitaria ciliaris); settings: foliage application, AAH 320 g/ha, evaluated three weeks after application
Summary of the method: (§4)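 Sow seeds spot-wise in sterilized diluvial soil; cover with ~1.5 cm soil. Grow 14 days in greenhouse, 25° C. to 30° C. Spray foliage with emulsion diluted to predetermined amount. Rate effect after 3 weeks.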

green foxtail [15] = test: Test Example 5: herbicidal effect by foliage application, plastic box (Table 20, symbol G); format: in vivo, green foxtail (Setaria viridis); settings: foliage application, AAH 320 g/ha, evaluated three weeks after application
Summary of the method: as §4

barnyard grass [16] = test: Test Example 5: herbicidal effect by foliage application, plastic box (Table 20, symbol H); format: in vivo, barnyard grass (Echinochloa crus-galli); settings: foliage application, AAH 320 g/ha, evaluated three weeks after application
Summary of the method: as §4

wild oat [17] = test: Test Example 5: herbicidal effect by foliage application, plastic box (Table 20, symbol I); format: in vivo, wild oat (Avena fatua); settings: foliage application, AAH 320 g/ha, evaluated three weeks after application
Summary of the method: as §4

blackgrass [18] = test: Test Example 5: herbicidal effect by foliage application, plastic box (Table 20, symbol J); format: in vivo, blackgrass (Alopecurus myosuroides); settings: foliage application, AAH 320 g/ha, evaluated three weeks after application
Summary of the method: as §4

Italian ryegrass [19] = test: Test Example 5: herbicidal effect by foliage application, plastic box (Table 20, symbol K); format: in vivo, Italian ryegrass (Lolium multiflorum); settings: foliage application, AAH 320 g/ha, evaluated three weeks after application
Summary of the method: as §4

windgrass [20] = test: Test Example 5: herbicidal effect by foliage application, plastic box (Table 20, symbol L); format: in vivo, windgrass (Apera spica-venti); settings: foliage application, AAH 320 g/ha, evaluated three weeks after application
Summary of the method: as §4

velvetleaf [21] = test: Test Example 5: herbicidal effect by foliage application, plastic box (Table 20, symbol M); format: in vivo, velvetleaf (Abutilon theophrasti); settings: foliage application, AAH 320 g/ha, evaluated three weeks after application
Summary of the method: as §4

redroot pigweed [22] = test: Test Example 5: herbicidal effect by foliage application, plastic box (Table 20, symbol N); format: in vivo, redroot pigweed (Amaranthus retroflexus); settings: foliage application, AAH 320 g/ha, evaluated three weeks after application
Summary of the method: as §4

lambsquarters [23] = test: Test Example 5: herbicidal effect by foliage application, plastic box (Table 20, symbol O); format: in vivo, lambsquarters (Chenopodium album); settings: foliage application, AAH 320 g/ha, evaluated three weeks after application
Summary of the method: as §4

chickweed [24] = test: Test Example 5: herbicidal effect by foliage application, plastic box (Table 20, symbol P); format: in vivo, common chickweed (Stellaria media); settings: foliage application, AAH 320 g/ha, evaluated three weeks after application
Summary of the method: as §4

persian speedwell [25] = test: Test Example 5: herbicidal effect by foliage application, plastic box (Table 20, symbol R); format: in vivo, Persian speedwell (Veronica persica); settings: foliage application, AAH 320 g/ha, evaluated three weeks after application
Summary of the method: as §4

Cc1nn(C)c(=O)c(-c2c(-c3ccc([S+](C)[O-])cc3)sc3ccc(F)cc23)c1O (stereo not drawn) [2-256]
Herbicidal effect on A: late watergrass (grade 0-5) (late watergrass): 2 (Herbicidal rate of 20% or more and less than 40%)
Herbicidal effect on B: Japanese bulrush (grade 0-5) (Japanese bulrush): 0 (Herbicidal rate of 5% or less (almost no effect))
Herbicidal effect on C: oval-leafed pondweed (grade 0-5) (oval-leafed pondweed): 0 (Herbicidal rate of 5% or less (almost no effect))
herbicidal effect on H: barnyard grass (barnyard grass [1]): 5 (Herbicidal rate of 90% or more (almost completely withered))
herbicidal effect on D: Chinese sprangletop (Chinese sprangletop): 4 (Herbicidal rate of 70% or more and less than 90%)
herbicidal effect on E: rice flat sedge (rice flat sedge): 4 (Herbicidal rate of 70% or more and less than 90%)
herbicidal effect on F: southern crabgrass (southern crabgrass [2]): 0 (Herbicidal rate of 5% or less (almost no effect))
herbicidal effect on G: green foxtail (green foxtail [3]): 0 (Herbicidal rate of 5% or less (almost no effect))
herbicidal effect on H: barnyard grass (barnyard grass [4]): 0 (Herbicidal rate of 5% or less (almost no effect))
herbicidal effect on I: wild oat (wild oat [5]): 1 (Herbicidal rate of 5% or more and less than 20%)
herbicidal effect on J: blackgrass (blackgrass [6]): 0 (Herbicidal rate of 5% or less (almost no effect))
herbicidal effect on K: Italian ryegrass (Italian ryegrass [7]): 3 (Herbicidal rate of 40% or more and less than 70%)
herbicidal effect on L: windgrass (windgrass [8]): 0 (Herbicidal rate of 5% or less (almost no effect))
herbicidal effect on M: velvetleaf (velvetleaf [9]): 0 (Herbicidal rate of 5% or less (almost no effect))
herbicidal effect on N: redroot pigweed (redroot pigweed [10]): 3 (Herbicidal rate of 40% or more and less than 70%)
herbicidal effect on O: lambsquarters (lambsquarters [11]): 0 (Herbicidal rate of 5% or less (almost no effect))
herbicidal effect on P: chickweed (chickweed [12]): 3 (Herbicidal rate of 40% or more and less than 70%)
herbicidal effect on R: persian speedwell (persian speedwell [13]): 4 (Herbicidal rate of 70% or more and less than 90%)
F: southern crabgrass, herbicidal effect (criteria 0-5) (southern crabgrass [14]): 4 (Herbicidal rate of 70% or more and less than 90%)
G: green foxtail, herbicidal effect (criteria 0-5) (green foxtail [15]): 3 (Herbicidal rate of 40% or more and less than 70%)
H: barnyard grass, herbicidal effect (criteria 0-5) (barnyard grass [16]): 1 (Herbicidal rate of 5% or more and less than 20%)
I: wild oat, herbicidal effect (criteria 0-5) (wild oat [17]): 5 (Herbicidal rate of 90% or more (almost completely withered))
J: blackgrass, herbicidal effect (criteria 0-5) (blackgrass [18]): 3 (Herbicidal rate of 40% or more and less than 70%)
K: Italian ryegrass, herbicidal effect (criteria 0-5) (Italian ryegrass [19]): 5 (Herbicidal rate of 90% or more (almost completely withered))
L: windgrass, herbicidal effect (criteria 0-5) (windgrass [20]): 5 (Herbicidal rate of 90% or more (almost completely withered))
M: velvetleaf, herbicidal effect (criteria 0-5) (velvetleaf [21]): 4 (Herbicidal rate of 70% or more and less than 90%)
N: redroot pigweed, herbicidal effect (criteria 0-5) (redroot pigweed [22]): 5 (Herbicidal rate of 90% or more (almost completely withered))
O: lambsquarters, herbicidal effect (criteria 0-5) (lambsquarters [23]): 5 (Herbicidal rate of 90% or more (almost completely withered))
P: chickweed, herbicidal effect (criteria 0-5) (chickweed [24]): 5 (Herbicidal rate of 90% or more (almost completely withered))
R: persian speedwell, herbicidal effect (criteria 0-5) (persian speedwell [25]): 5 (Herbicidal rate of 90% or more (almost completely withered))

CSCc1ccc(-c2sc3ccc(F)cc3c2-c2c(O)c(C)nn(C)c2=O)cc1 [2-317]
Herbicidal effect on A: late watergrass (grade 0-5) (late watergrass): 3 (Herbicidal rate of 40% or more and less than 70%)
Herbicidal effect on B: Japanese bulrush (grade 0-5) (Japanese bulrush): 0 (Herbicidal rate of 5% or less (almost no effect))
Herbicidal effect on C: oval-leafed pondweed (grade 0-5) (oval-leafed pondweed): 0 (Herbicidal rate of 5% or less (almost no effect))
herbicidal effect on H: barnyard grass (barnyard grass [1]): 5 (Herbicidal rate of 90% or more (almost completely withered))
herbicidal effect on D: Chinese sprangletop (Chinese sprangletop): 2 (Herbicidal rate of 20% or more and less than 40%)
herbicidal effect on E: rice flat sedge (rice flat sedge): 5 (Herbicidal rate of 90% or more (almost completely withered))
herbicidal effect on F: southern crabgrass (southern crabgrass [2]): 4 (Herbicidal rate of 70% or more and less than 90%)
herbicidal effect on G: green foxtail (green foxtail [3]): 4 (Herbicidal rate of 70% or more and less than 90%)
herbicidal effect on H: barnyard grass (barnyard grass [4]): 5 (Herbicidal rate of 90% or more (almost completely withered))
herbicidal effect on I: wild oat (wild oat [5]): 0 (Herbicidal rate of 5% or less (almost no effect))
herbicidal effect on J: blackgrass (blackgrass [6]): 1 (Herbicidal rate of 5% or more and less than 20%)
herbicidal effect on K: Italian ryegrass (Italian ryegrass [7]): 4 (Herbicidal rate of 70% or more and less than 90%)
herbicidal effect on L: windgrass (windgrass [8]): 0 (Herbicidal rate of 5% or less (almost no effect))
herbicidal effect on M: velvetleaf (velvetleaf [9]): 4 (Herbicidal rate of 70% or more and less than 90%)
herbicidal effect on N: redroot pigweed (redroot pigweed [10]): 5 (Herbicidal rate of 90% or more (almost completely withered))
herbicidal effect on O: lambsquarters (lambsquarters [11]): 5 (Herbicidal rate of 90% or more (almost completely withered))
herbicidal effect on P: chickweed (chickweed [12]): 0 (Herbicidal rate of 5% or less (almost no effect))
herbicidal effect on R: persian speedwell (persian speedwell [13]): 3 (Herbicidal rate of 40% or more and less than 70%)
F: southern crabgrass, herbicidal effect (criteria 0-5) (southern crabgrass [14]): 5 (Herbicidal rate of 90% or more (almost completely withered))
G: green foxtail, herbicidal effect (criteria 0-5) (green foxtail [15]): 5 (Herbicidal rate of 90% or more (almost completely withered))
H: barnyard grass, herbicidal effect (criteria 0-5) (barnyard grass [16]): 5 (Herbicidal rate of 90% or more (almost completely withered))
I: wild oat, herbicidal effect (criteria 0-5) (wild oat [17]): 5 (Herbicidal rate of 90% or more (almost completely withered))
J: blackgrass, herbicidal effect (criteria 0-5) (blackgrass [18]): 4 (Herbicidal rate of 70% or more and less than 90%)
K: Italian ryegrass, herbicidal effect (criteria 0-5) (Italian ryegrass [19]): 5 (Herbicidal rate of 90% or more (almost completely withered))
L: windgrass, herbicidal effect (criteria 0-5) (windgrass [20]): 5 (Herbicidal rate of 90% or more (almost completely withered))
M: velvetleaf, herbicidal effect (criteria 0-5) (velvetleaf [21]): 5 (Herbicidal rate of 90% or more (almost completely withered))
N: redroot pigweed, herbicidal effect (criteria 0-5) (redroot pigweed [22]): 5 (Herbicidal rate of 90% or more (almost completely withered))
O: lambsquarters, herbicidal effect (criteria 0-5) (lambsquarters [23]): 5 (Herbicidal rate of 90% or more (almost completely withered))
P: chickweed, herbicidal effect (criteria 0-5) (chickweed [24]): 5 (Herbicidal rate of 90% or more (almost completely withered))
R: persian speedwell, herbicidal effect (criteria 0-5) (persian speedwell [25]): 5 (Herbicidal rate of 90% or more (almost completely withered))
